For data set [1], the system named is MDA-MB-231 cells. The data set can be described thus: cells. Format: cell-based, human. Particulars: for IC50: Homo sapiens, MDA-MB-231, MTT, range 0.2–2.0 µg/mL, Figure 4, read-out: IC50 (cell viability). The method, then:
(§1) MCF-7 (Luminal breast cancer), MDA-MB-231 (TNBC), and MCF10A (non-tumor mammary gland epithelial cells) were purchased from the Rio de Janeiro Cell Bank (BCRJ, Rio de Janeiro, RJ, Brazil). HMEC (Primary Mammary Epithelial Cells) and HDFa (Human Dermal Fibroblasts) cell lines were purchased from Gibco (Waltham, MA, USA). MCF-7 and MDA-MB-231 were cultured in an RPMI 1640 medium supplemented with 10% heat-inactivated FBS, 1% glutamine, and 1% antibiotic/antimycotic solution. MCF10A and HMEC were cultured in MEBM medium supplemented with 100 ng/mL cholera toxin, 2.5 mM L-glutamine, 5% horse serum, 10 µg/mL human insulin, 0.5 µg/mL hydrocortisone, and 10 ng/mL EGF. All cells used in this study were incubated at 37 °C under 5% CO2 and checked for authenticity through polymerase chain reaction (PCR) followed by fragment analysis of eight highly polymorphic microsatellite loci (short tandem repeat—STR) plus gender determination with score ≥ 80%.
(§2) Stock solutions of Peptides 1 to 12, doxorubicin, and cisplatin were prepared in PBS (1X). Doxorubicin and cisplatin were stored at −20 °C and the peptide solutions were freshly prepared before each experiment. The final concentration of PBS (1X) in the culture medium was lower than 0.02%. All the negative controls contained this vehicle in the same culturing conditions as previously described.
(§3) Cell viability assay was conducted using the MTT method. For treatments lasting 24 h, the cells were seeded at the density of 2 × 10^4 cells/well into 96-well sterile plates, and for treatments lasting 48 or 72 h, the cell density was 1 × 10^4 cells/well. The following day, cells were treated by applying 200 μL/well of each agent (Peptides 1 to 12, doxorubicin, or cisplatin) at the desired concentration and incubated for the duration of the treatment. Afterward, cells were incubated with 20 μL/well of an MTT solution (5 mg/mL) for 2.5 h. Then, formazan salts were solubilized with 200 μL of DMSO: isopropanol (3:1) and agitated for at least 15 min at room temperature. The absorbance was measured at 570 nm with a spectrophotometer (Molecular devices Spectra Max Plus 384—San Jose, CA, USA), and relative cell viability was calculated. To evaluate the mechanism of cell death, cell cultures were treated with peptides in the presence or absence of 3-methyladenine (3-MA) ([…]), which is an autophagy inhibitor [37]. After treatment, the MTT assay was carried out as previously described.

The test system of data set [2] is HDFa cells. The data set is described as follows: cells. It counts as cell-based, human. The method, then: as §1, §2, §3
The next data set deals with zebrafish embryos. The data set can be described thus: In vivo zebrafish embryo toxicity study. The method, then:
Transgenic Tg(fli1:EGFP)^y1 zebrafish embryos were raised at 28 °C for 48 h in E3 embryo medium 0.2 mM 1-Phenyl-2-Thiourea (PTU). […] Zebrafish embryos obtained at 48 h post fertilization (hpf), n = 20 embryos/group, were subcutaneously injected with the 3-NAntC peptide at 0.0015, 0.015, 0.15, 75, and 150 mg/mL diluted in E3 embryo medium containing 0.003% 1-phenyl-2-thiourea (PTU) and the embryos were maintained at 28.5 °C. Pictures were taken after 24, 48, and 72 h of peptide exposure and the percentage of live animals, as well as the percentage of live animals with malformations, were visually analyzed.

In data set [3] the test system is MDA-MB-231 cells. The data set can be described thus: Cell proliferation assay (BrdU incorporation) in MDA-MB-231. It counts as cell-based, human. The conditions noted are these: for IC50 (proliferation): range 0.2–1.0 µg/mL. The method, then: (§4) Cell proliferation was assessed with the BrdU method using the Cell Proliferation ELISA, BrdU (colorimetric) kit from Roche (Basel, Switzerland). Cell seeding and treatments were carried out as presented in Section 4.3. BrdU-labeling (20 μL/well) was added and incubated for 2.5 h. Then, ELISA was performed with an anti-BrdU-POD antibody, followed by washing and substrate solutions. The substrate was then developed for 15 min and the reaction was stopped with HCl (6M). The absorbance was measured at 495 nm with a spectrophotometer (Molecular devices Spectra Max Plus 384—San Jose, CA, USA), and the relative cell proliferation was calculated.
In general terms: Dividing cells build labelled thymidine or BrdU into new DNA.

The subject of a further data set is MCF-7 cells. It counts as cell-based, human. The conditions noted are these: for cell viability: 1 µg/mL. As to the method:
as §1, §2, §3

Another data set deals with HMEC cells. Format: cell-based, human. The conditions noted are these: 72 h, 1 µg/mL. As to the method: as §1, §2, §3
The subject of the next data set is MCF10A cells. It counts as cell-based, human. As to the method:
as §1, §2, §3

Data set [4] concerns HDFa cells. The data set is described as follows: Cell proliferation assay (BrdU incorporation) in HDFa. Particulars: 72 hours, range 0.2–1.0 µg/mL. Format: cell-based, human. The method, then:
as §4

For data set [5], the system named is MDA-MB-231 cells. The data set is described as follows: LDH release assay. Format: cell-based, human. The conditions noted are these: 0–1.0 µg/mL. As to the method:
The CyQUANT LDH Cytotoxicity Assay (Thermo Fisher, Waltham, MA, USA) was employed to determine LDH release as a measure of plasma membrane damage, an important indicator of necrosis and pyroptosis. […] Cell seeding and treatments proceeded as presented in Section 4.3. After treatment incubation, 20 μL of supernatant was transferred to an EIA/RIA plate. The Reaction Mixture (20 μL/well) was added and incubated at room temperature for 30 min in the dark. Afterward, 60 μL/well of the Stop Solution was added and the absorbance of the reaction mixtures was quantified at both 490 nm and 680 nm with a spectrophotometer (Molecular devices Spectra Max Plus 384—San Jose, CA, USA). The absorbance at 680 nm was subtracted from the value at 490 nm, and then relative LDH release was calculated.
(In general: Release of lactate dehydrogenase indicates damage to the cell membrane.)

≈ marks a conversion by molar mass, not a printed value. Entries after “also recorded” stand apart in the source; their conditions may differ. Where two headings read alike, the source gives them in different places. Where no end group is shown, it is not given here.

One may read the IC50 as the concentration at which inhibition is half-maximal. By cell viability is commonly meant a per cent measure of how many cells are alive, often set against a control.

For the molecule `COc1cccc2c1C(=O)c1c(O)c3c(c(O)c1C2=O)C[C@@](O)(C(=O)CO)C[C@@H]3O[C@H]1C[C@H](N)[C@H](O)[C@H](C)O1` [Doxorubicin, doxorubicin, reference compound], the IC50 was 0.21 µg/mL (≈ 0.386 µM) with MDA-MB-231 cells [1] (48 hours); 0.17 µg/mL (≈ 0.313 µM) in the data set on MDA-MB-231 cells [1] (72 hours); 1.12 µg/mL (≈ 2.06 µM) in the data set with HDFa cells [2] (Homo sapiens, HDFa, 24 hours, MTT, range 0.2–2.0 µg/mL, Figure 4, read-out: IC50 (cell viability)).
With `CC[C@H](C)[C@H](NC(=O)[C@H](CCSC)NC(=O)[C@H](CCCCN)NC(=O)[C@H](CC(N)=O)NC(=O)[C@H](Cc1ccccc1)NC(=O)[C@H](CCC(N)=O)NC(=O)[C@H](CC(C)C)NC(=O)[C@H](CC(C)C)NC(=O)[C@@H](N)Cc1c[nH]cn1)C(=O)N[C@@H](CCCCN)C(=O)N[C@@H](Cc1ccccc1)C(=O)N[C@@H](CCC(=O)O)C(=O)N[C@H](C(=O)N[C@@H](CCCNC(=N)N)C(=O)N[C@@H](CCCCN)C(=O)N[C@@H](CC(N)=O)C(=O)N[C@@H](C)C(=O)N[C@H](C(=O)N1CCC[C@H]1C(=O)N[C@@H](Cc1ccccc1)C(=O)O)[C@@H](C)CC)[C@@H](C)O` [Peptide 1], the cell viability in the data set with MDA-MB-231 cells [1] (24 h, 2.5 µg/mL) is recorded as 94.4 ± 4.6%; in the data set on MDA-MB-231 cells [1] (48 h, 2.5 µg/mL), 90.7 ± 3.0%.
Molecule `CSCC[C@H](N)C(=O)N[C@@H](Cc1ccccc1)C(=O)N[C@@H](Cc1ccc(O)cc1)C(=O)N1CCC[C@H]1C(=O)N[C@@H](CC(=O)O)C(=O)N[C@@H](CO)C(=O)N[C@@H](CCCNC(=N)N)C(=O)N[C@@H](CS)C(=O)N[C@@H](CCCNC(=N)N)C(=O)NCC(=O)N1CCC[C@H]1C(=O)N[C@@H](CO)C(=O)N[C@@H](CCC(=O)O)C(=O)N[C@H](C(=O)O)[C@@H](C)O` [Peptide 3-NAntC] gave a lethality with zebrafish embryos (150 mg/mL, after 48 and 72 h of treatment, n = 20 embryos/group) of 45%. For the same molecule, in the data set with zebrafish embryos (150 mg/mL, n = 20 embryos/group), the “surviving embryos exhibiting malformations” value is listed as 50–60%. In addition, the “lethality and non-lethal events (malformations)” value in the data set with zebrafish embryos (1.5 to 150 µg/mL and 75 mg/mL, embryos 48 hpf, n = 20 embryos/group, 24, 48, 72 h) is given as “no lethal effects; also recorded: did not show lethality or significant non-lethal events (malformations)”. The “LD50 (dose that kills 50% of the embryos)” value in the data set with zebrafish embryos (doses up to 150 mg/mL) is given as “could not be determined”. The maximum proliferation inhibition in the data set with MDA-MB-231 cells [3] (0.6 µg/mL, 48 h, mean ± SEM) is given as 71.1 ± 27.1%. Besides, the “IC50 (proliferation)” value is 0.46 µg/mL (≈ 0.279 µM) with MDA-MB-231 cells [3] (24h), 0.46 µg/mL (≈ 0.279 µM) with MDA-MB-231 cells [3] (48h), 0.37 µg/mL (≈ 0.225 µM) in the data set with MDA-MB-231 cells [3] (72h) and more than 1 µg/mL with HDFa cells [4]. Also, the “IC50 (cell viability)” value in the data set with MCF-7 cells (24 h) was 2.31 µg/mL (≈ 1.4 µM); with MCF-7 cells (48 h), 1.49 µg/mL (≈ 0.905 µM); in the data set with MCF-7 cells (72 h), 1.49 µg/mL (≈ 0.905 µM); in the data set with MCF10A cells (48 h) it was more than 20 µg/mL; with MDA-MB-231 cells [1] (48 h) it was 1.44 µg/mL (≈ 0.875 µM); in the data set on MDA-MB-231 cells [1] (72 h) it was 0.55 µg/mL (≈ 0.334 µM). For the same molecule, the “IC50 (cell viability)” value in the data set with HDFa cells [2] (72 h) was more than 2 µg/mL. The cell viability was found to be 54.7 ± 15.5% with MCF-7 cells (48 h); 62.9 ± 26.0% in the data set with MCF-7 cells (72 h); 98.2 ± 13.8% in the data set on HMEC cells; 93.4 ± 7.4% with MCF10A cells (24 h, 2.5 µg/mL); 80.5 ± 5.3% with MCF10A cells (48 h, 2.5 µg/mL); 65.9 ± 10.3% in the data set with MCF10A cells (48 h, 20 µg/mL). The cell viability is listed as 77.5 ± 15.0% in the data set on MDA-MB-231 cells [1] (24 h, 0.8 µg/mL); 60.8 ± 17.9% in the data set with MDA-MB-231 cells [1] (48 h, 0.8 µg/mL); 64.6 ± 14.5% in the data set with MDA-MB-231 cells [1] (48 h, 1 µg/mL); 49.0 ± 17.5% in the data set on MDA-MB-231 cells [1] (72 h, 1 µg/mL). In addition, in the data set with HDFa cells [2] (72 h, 1 µg/mL), the cellular viability entry is on record as “higher than 80%”. For the same molecule, the LDH release result in the data set with MDA-MB-231 cells [5] (24 and 48 h treatments) was “did not consistently increase LDH release”; in the data set on MDA-MB-231 cells [5] (72 h), “increase in LDH release”.
On to AIPFYAFY [Peptide 2], for which the “IC50 (cell viability)” value with MCF10A cells (48 h), in the data set with MDA-MB-231 cells [1] (24 h) and with MDA-MB-231 cells [1] (48 h) was more than 20 µg/mL throughout. The cell viability in the data set on MCF10A cells (48 h, 2.5 µg/mL) is 85.7 ± 11.2%; in the data set with MDA-MB-231 cells [1] (24 h, 2.5 µg/mL), 81.6 ± 5.0%; in the data set on MDA-MB-231 cells [1] (48 h, 2.5 µg/mL) it was 85.0 ± 7.9%.

(Values after article PMC11013444, “3-NAntC: A Potent Crotoxin B-Derived Peptide against the Triple-Negative MDA-MB-231 Breast Cancer Cell Line” (Molecules, 2024).)
